Results from US6914045B2, “Glycopeptide antibiotics” (Wyeth Holdings Corporation, priority 2001, dated 2005).
Values after ≈ are worked out from the molar mass of the structure shown.

Legend:
Assay in all cases: in vitro antibacterial evaluation, MIC by broth dilution
Type in all cases: cell-based
Enterococcus sp. = conditions: broth dilution, 18 hours at 35° C.
How it was run: (§1)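 Step 1: dilute antibiotic across 64-0.06 μg/mL in Muller-Hinton II […]. Step 2: inoculate at 5×10^5 CFU/mL.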

Escherichia coli = conditions: 18 hours at 35° C.
How it was run: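 Following National Committee for Clinical Laboratory Standards recommendations (M7-A2), susceptibility was measured by dilution in Muller-Hinton II […]. Bacteria were seeded at 5×10^5 CFU/mL against compound concentrations from 64 down to 0.06 μg/mL.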

Staphylococcus sp. = conditions: broth dilution, 18 hours at 35° C.
How it was run: as §1

Streptococcus sp. = conditions: broth dilution, 18 hours at 35° C.
How it was run: as §1

MIC Enterococcus avium (GC 4558) (Enterococcus sp.; Enterococcus avium (GC 4558)): 128 µg/mL (≈ 93.7 µM)
MIC Enterococcus faecalis (ATCC 29212) (Enterococcus sp.; Enterococcus faecalis (ATCC 29212)): 128 µg/mL (≈ 93.7 µM)
MIC Enterococcus faecalis (GC 4553) (Enterococcus sp.; Enterococcus faecalis (GC 4553)): 128 µg/mL (≈ 93.7 µM)
MIC Enterococcus faecalis (GC 4554) (Enterococcus sp.; Enterococcus faecalis (GC 4554)): >128 µg/mL
MIC Enterococcus faecalis (GC 6189) (Enterococcus sp.; Enterococcus faecalis (GC 6189)): 128 µg/mL (≈ 93.7 µM)
MIC Enterococcus faecium (GC 2243) (Enterococcus sp.; Enterococcus faecium (GC 2243)): 128 µg/mL (≈ 93.7 µM)
MIC Enterococcus faecium (GC 4556) (Enterococcus sp.; Enterococcus faecium (GC 4556)): 128 µg/mL (≈ 93.7 µM)
MIC Enterococcus faecium (GC 4557) (Enterococcus sp.; Enterococcus faecium (GC 4557)): 16 µg/mL (≈ 11.7 µM)
MIC Enterococcus faecalis (ATCC 29212) (Enterococcus sp.; strain ATCC 29212): 128 µg/mL (≈ 93.7 µM)
MIC Enterococcus faecalis (GC 2242) (Enterococcus sp.; strain GC 2242): 128 µg/mL (≈ 93.7 µM)
MIC Enterococcus faecium (GC 2243) (Enterococcus sp.; strain GC 2243): 128 µg/mL (≈ 93.7 µM)
MIC Enterococcus faecalis (GC 2691) (Enterococcus sp.; strain GC 2691): 128 µg/mL (≈ 93.7 µM)
MIC Enterococcus faecalis (GC 3059) (Enterococcus sp.; strain GC 3059): >128 µg/mL
MIC Enterococcus faecalis (GC 4552) (Enterococcus sp.; strain GC 4552): 128 µg/mL (≈ 93.7 µM)
MIC Enterococcus faecalis (GC 4553) (Enterococcus sp.; strain GC 4553): 128 µg/mL (≈ 93.7 µM)
MIC Enterococcus faecalis (GC 4554) (Enterococcus sp.; strain GC 4554): >128 µg/mL
MIC Enterococcus faecium (GC 4556) (Enterococcus sp.; strain GC 4556): 128 µg/mL (≈ 93.7 µM)
MIC Enterococcus faecium (GC 4557) (Enterococcus sp.; strain GC 4557): 16 µg/mL (≈ 11.7 µM)
MIC Enterococcus avium (GC 4558) (Enterococcus sp.; strain GC 4558): 128 µg/mL (≈ 93.7 µM)
MIC Enterococcus faecalis (GC 6189) (Enterococcus sp.; strain GC 6189): 128 µg/mL (≈ 93.7 µM)
MIC Escherichia coli (ATCC 25922) (Escherichia coli; Escherichia coli (ATCC 25922)): 128 µg/mL (≈ 93.7 µM)
MIC Escherichia coli (GC 4559) (Escherichia coli; Escherichia coli (GC 4559)): 128 µg/mL (≈ 93.7 µM)
MIC Escherichia coli (GC 4560) (Escherichia coli; Escherichia coli (GC 4560)): 8 µg/mL (≈ 5.86 µM)
MIC Coagulase Negative Staphylococcus (GC 4547) (Staphylococcus sp.): 16 µg/mL (≈ 11.7 µM)
MIC Coagulase Negative Staphylococcus (GC 4548) (Staphylococcus sp.): 8 µg/mL (≈ 5.86 µM)
MIC Coagulase Negative Staphylococcus (GC 4549) (Staphylococcus sp.): 16 µg/mL (≈ 11.7 µM)
MIC Coagulase Negative Staphylococcus (GC 4551) (Staphylococcus sp.): 32 µg/mL (≈ 23.4 µM)
MIC Staphylococcus aureus (ATCC 29213) (Staphylococcus sp.): 32 µg/mL (≈ 23.4 µM)
MIC Staphylococcus aureus (GC 1131) (Staphylococcus sp.): 32 µg/mL (≈ 23.4 µM)
MIC Staphylococcus aureus (GC 3051) (Staphylococcus sp.): 32 µg/mL (≈ 23.4 µM)
MIC Staphylococcus aureus (GC 3053) (Staphylococcus sp.): 64 µg/mL (≈ 46.9 µM)
MIC Staphylococcus aureus (GC 4541) (Staphylococcus sp.): 32 µg/mL (≈ 23.4 µM)
MIC Staphylococcus aureus (GC 4542) (Staphylococcus sp.): 32 µg/mL (≈ 23.4 µM)
MIC Staphylococcus aureus (GC 4544) (Staphylococcus sp.): 32 µg/mL (≈ 23.4 µM)
MIC Staphylococcus aureus (GC 4545) (Staphylococcus sp.): 16 µg/mL (≈ 11.7 µM)
MIC Staphylococcus aureus-SMITH (GC 4543) (Staphylococcus sp.): 16 µg/mL (≈ 11.7 µM)
MIC Staphylococcus aureus (ATCC 29213) (Staphylococcus sp.; strain ATCC 29213): 32 µg/mL (≈ 23.4 µM)
MIC Staphylococcus aureus (GC 1131) (Staphylococcus sp.; strain GC 1131): 32 µg/mL (≈ 23.4 µM)
MIC Staphylococcus aureus (GC 3051) (Staphylococcus sp.; strain GC 3051): 32 µg/mL (≈ 23.4 µM)
MIC Staphylococcus aureus (GC 3053) (Staphylococcus sp.; strain GC 3053): 64 µg/mL (≈ 46.9 µM)
MIC Staphylococcus aureus (GC 4541) (Staphylococcus sp.; strain GC 4541): 32 µg/mL (≈ 23.4 µM)
MIC Staphylococcus aureus (GC 4542) (Staphylococcus sp.; strain GC 4542): 32 µg/mL (≈ 23.4 µM)
MIC Staphylococcus aureus (GC 4544) (Staphylococcus sp.; strain GC 4544): 32 µg/mL (≈ 23.4 µM)
MIC Staphylococcus aureus (GC 4545) (Staphylococcus sp.; strain GC 4545): 16 µg/mL (≈ 11.7 µM)
MIC Coagulase Negative Staphylococcus (GC 4547) (Staphylococcus sp.; strain GC 4547): 16 µg/mL (≈ 11.7 µM)
MIC Coagulase Negative Staphylococcus (GC 4548) (Staphylococcus sp.; strain GC 4548): 8 µg/mL (≈ 5.86 µM)
MIC Coagulase Negative Staphylococcus (GC 4549) (Staphylococcus sp.; strain GC 4549): 16 µg/mL (≈ 11.7 µM)
MIC Coagulase Negative Staphylococcus (GC 4551) (Staphylococcus sp.; strain GC 4551): 32 µg/mL (≈ 23.4 µM)
MIC Staphylococcus aureus-SMITH (GC 4543) (Staphylococcus sp.; strain SMITH GC 4543): 16 µg/mL (≈ 11.7 µM)
MIC Streptococcus pneumoniae (ATCC 6301) (Streptococcus sp.; strain ATCC 6301): 8 µg/mL (≈ 5.86 µM)
MIC Streptococcus pneumoniae (GC 1894) (Streptococcus sp.; strain GC 1894): 4 µg/mL (≈ 2.93 µM)
MIC Streptococcus pyogenes (GC 4563) (Streptococcus sp.; strain GC 4563): 16 µg/mL (≈ 11.7 µM)
MIC Streptococcus agalactiae (GC 4564) (Streptococcus sp.; strain GC 4564): 16 µg/mL (≈ 11.7 µM)
MIC Streptococcus pneumoniae (GC 4565) (Streptococcus sp.; strain GC 4565): 8 µg/mL (≈ 5.86 µM)
SMILES: CC(C)CC(=O)OCC1OC(OC2C(CO)OC(Oc3ccc(CC4NC(=O)C(Cc5ccccc5)NC(=O)CNC(=O)C(CO)NC(=O)C(C(O)C5CNC(=N)N5C5OC(CO)C(O)C(O)C5O)NC(=O)C(C(O)C5CNC(=N)N5)NC4=O)cc3)C(O)C2O)C(O)C(O)C1O (centres unmarked) [Example 283c, Cyclo[glycylphenylalanyl-O-[4-O-[6-O-(3-methylbutanoyl)-hexopyranosyl]hexopyranosyl]tyrosyl-3-(2-iminoimidazolidin-4-yl)seryl-3-(3-hexopyranosyl-2-iminoimidazolidin-4-yl)serylseryl]]
MIC Staphylococcus haemolyticus (GC 4546) (Staphylococcus sp.): 16 µg/mL (≈ 11.7 µM)
MIC Staphylococcus haemolyticus (GC 4546) (Staphylococcus sp.; strain GC 4546): 16 µg/mL (≈ 11.7 µM)
